pIC50: −log10 of the molar value. Where two headings read alike, the source gives them in different places.
Experiments:
mTOR = mTOR (Homo sapiens, UniProt P42345); assay: Enzyme - mTOR Kinase Assay (Echo); assay type: biochemical; conditions: recombinant FLAG-tagged mTOR (1362-2549); AlphaScreen; ATP 20 μM;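 also: enzyme expressed in HEK293 cells, 2 h incubation at room temperature, read-out is phosphorylation of a biotinylated peptide substrate detected with an anti-phospho p70 S6 Kinase (T389) antibody, inhibition lowers signal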
ATR = biological target: T1, ATR (Homo sapiens, UniProt Q13535); assay: Enzyme Assay - ATR (Test (a)); assay type: biochemical;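 also: kinase activity of bead-bound ATR toward a GST-p53 N-terminal fragment substrate, 1 h at 37 °C, read by chemiluminescence, with inhibitor-free wells as control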
T1 construct: obtained from HeLa nuclear extract (CIL Biotech, Mons, Belgium) by immunoprecipitation with rabbit polyclonal antiserum raised to amino acids 400-480 of ATR; host or cells: HeLa nuclear extract

[1] = ATR immunoprecipitated from HeLa nuclear extract, 3 μM ATP, average of individual tests, read-out: ATR average IC50

mTOR, sequence (P42345 1362-2549): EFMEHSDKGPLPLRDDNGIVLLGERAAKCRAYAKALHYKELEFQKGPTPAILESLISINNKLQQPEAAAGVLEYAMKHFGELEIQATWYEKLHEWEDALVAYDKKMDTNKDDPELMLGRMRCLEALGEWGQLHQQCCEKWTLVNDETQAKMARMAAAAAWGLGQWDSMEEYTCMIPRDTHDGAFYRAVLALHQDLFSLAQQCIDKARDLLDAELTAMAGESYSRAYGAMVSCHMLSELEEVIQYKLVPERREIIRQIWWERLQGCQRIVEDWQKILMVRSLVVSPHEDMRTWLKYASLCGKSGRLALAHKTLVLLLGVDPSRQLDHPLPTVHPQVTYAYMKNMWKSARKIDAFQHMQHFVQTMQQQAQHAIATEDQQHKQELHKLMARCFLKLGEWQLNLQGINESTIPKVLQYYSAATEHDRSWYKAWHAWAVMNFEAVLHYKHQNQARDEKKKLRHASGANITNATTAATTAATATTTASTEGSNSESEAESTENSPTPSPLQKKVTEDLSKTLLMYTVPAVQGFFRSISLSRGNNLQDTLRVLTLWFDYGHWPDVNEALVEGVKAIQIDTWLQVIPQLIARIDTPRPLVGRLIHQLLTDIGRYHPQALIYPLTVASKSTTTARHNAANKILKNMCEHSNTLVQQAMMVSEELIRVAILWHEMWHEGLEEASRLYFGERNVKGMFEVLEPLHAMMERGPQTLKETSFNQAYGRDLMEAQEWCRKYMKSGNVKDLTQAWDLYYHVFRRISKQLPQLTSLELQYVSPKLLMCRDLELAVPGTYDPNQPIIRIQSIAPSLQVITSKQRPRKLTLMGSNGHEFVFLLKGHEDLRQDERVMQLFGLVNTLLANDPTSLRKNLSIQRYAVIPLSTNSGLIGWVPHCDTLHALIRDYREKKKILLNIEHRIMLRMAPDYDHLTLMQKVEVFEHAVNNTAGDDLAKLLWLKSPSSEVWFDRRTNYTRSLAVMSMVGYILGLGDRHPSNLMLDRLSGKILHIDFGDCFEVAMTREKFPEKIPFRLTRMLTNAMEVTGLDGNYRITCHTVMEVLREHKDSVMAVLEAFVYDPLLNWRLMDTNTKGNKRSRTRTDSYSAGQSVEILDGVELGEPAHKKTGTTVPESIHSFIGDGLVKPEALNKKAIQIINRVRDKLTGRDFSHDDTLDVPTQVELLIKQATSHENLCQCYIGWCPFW
T1 sequence (Q13535 whole entry, the tested form may be a part): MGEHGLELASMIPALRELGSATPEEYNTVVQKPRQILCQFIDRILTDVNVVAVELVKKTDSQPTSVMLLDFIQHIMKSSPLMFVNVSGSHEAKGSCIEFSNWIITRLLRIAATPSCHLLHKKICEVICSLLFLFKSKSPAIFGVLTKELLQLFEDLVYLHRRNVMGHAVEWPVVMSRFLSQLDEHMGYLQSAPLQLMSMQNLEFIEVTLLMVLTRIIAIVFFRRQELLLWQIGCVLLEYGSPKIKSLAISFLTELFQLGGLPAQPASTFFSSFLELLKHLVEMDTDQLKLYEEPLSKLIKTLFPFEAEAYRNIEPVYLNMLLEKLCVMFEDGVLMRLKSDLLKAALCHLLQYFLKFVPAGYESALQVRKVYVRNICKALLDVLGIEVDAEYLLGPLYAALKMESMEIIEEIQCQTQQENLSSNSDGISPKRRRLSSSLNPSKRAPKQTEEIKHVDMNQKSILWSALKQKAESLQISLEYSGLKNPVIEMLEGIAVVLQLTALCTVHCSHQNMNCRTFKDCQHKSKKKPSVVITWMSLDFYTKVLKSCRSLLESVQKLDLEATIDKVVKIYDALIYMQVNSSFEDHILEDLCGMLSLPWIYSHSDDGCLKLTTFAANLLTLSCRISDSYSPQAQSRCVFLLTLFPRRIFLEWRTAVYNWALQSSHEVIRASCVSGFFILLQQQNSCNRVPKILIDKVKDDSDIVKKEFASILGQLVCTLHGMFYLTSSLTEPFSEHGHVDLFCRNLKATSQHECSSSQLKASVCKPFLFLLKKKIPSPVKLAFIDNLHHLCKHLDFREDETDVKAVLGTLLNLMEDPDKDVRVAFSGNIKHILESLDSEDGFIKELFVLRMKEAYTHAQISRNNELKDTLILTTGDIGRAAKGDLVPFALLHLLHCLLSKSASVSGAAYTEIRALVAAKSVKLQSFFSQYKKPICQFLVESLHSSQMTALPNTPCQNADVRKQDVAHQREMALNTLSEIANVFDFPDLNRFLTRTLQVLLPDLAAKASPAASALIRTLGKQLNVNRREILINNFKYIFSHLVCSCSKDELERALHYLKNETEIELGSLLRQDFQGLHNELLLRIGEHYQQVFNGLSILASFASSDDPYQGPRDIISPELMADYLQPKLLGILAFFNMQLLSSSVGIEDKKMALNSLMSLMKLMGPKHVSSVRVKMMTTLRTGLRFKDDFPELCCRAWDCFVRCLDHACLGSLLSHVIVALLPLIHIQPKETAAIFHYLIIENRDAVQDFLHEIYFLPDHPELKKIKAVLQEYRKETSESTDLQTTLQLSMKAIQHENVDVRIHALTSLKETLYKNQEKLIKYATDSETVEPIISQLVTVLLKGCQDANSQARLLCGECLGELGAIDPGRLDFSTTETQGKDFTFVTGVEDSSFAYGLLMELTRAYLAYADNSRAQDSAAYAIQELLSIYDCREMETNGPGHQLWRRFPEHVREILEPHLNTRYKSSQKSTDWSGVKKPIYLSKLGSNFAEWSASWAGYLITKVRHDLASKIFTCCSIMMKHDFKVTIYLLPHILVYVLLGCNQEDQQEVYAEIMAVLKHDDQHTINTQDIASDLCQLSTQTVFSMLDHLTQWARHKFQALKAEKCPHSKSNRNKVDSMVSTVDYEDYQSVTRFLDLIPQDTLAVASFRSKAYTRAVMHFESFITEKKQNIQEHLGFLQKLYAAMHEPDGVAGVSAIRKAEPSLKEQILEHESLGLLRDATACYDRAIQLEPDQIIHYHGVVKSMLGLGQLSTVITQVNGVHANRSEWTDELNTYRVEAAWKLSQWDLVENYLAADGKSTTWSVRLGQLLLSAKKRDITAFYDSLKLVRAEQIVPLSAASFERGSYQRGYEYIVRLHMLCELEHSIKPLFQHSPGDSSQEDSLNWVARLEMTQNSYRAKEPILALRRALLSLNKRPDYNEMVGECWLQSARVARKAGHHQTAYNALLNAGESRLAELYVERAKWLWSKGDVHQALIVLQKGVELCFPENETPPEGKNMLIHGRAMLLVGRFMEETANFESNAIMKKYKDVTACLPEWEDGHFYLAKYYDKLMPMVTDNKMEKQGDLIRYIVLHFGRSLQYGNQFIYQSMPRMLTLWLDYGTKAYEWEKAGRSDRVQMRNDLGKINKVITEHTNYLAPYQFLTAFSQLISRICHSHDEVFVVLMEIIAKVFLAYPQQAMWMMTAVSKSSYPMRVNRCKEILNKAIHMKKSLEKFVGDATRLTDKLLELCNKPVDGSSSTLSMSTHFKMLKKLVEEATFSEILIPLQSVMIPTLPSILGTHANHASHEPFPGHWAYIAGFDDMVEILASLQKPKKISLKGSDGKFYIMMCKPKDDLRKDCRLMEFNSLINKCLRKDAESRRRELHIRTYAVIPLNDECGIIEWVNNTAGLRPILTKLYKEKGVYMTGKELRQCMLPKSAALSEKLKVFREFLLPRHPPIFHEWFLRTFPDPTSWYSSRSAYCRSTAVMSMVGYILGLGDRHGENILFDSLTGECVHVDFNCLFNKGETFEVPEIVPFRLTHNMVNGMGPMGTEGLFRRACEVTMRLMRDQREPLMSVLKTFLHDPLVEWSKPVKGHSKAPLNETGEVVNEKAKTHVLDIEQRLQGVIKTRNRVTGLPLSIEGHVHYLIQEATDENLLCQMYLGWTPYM
T1 sequence (Q8WXE1 whole entry partner, the tested form may be a part): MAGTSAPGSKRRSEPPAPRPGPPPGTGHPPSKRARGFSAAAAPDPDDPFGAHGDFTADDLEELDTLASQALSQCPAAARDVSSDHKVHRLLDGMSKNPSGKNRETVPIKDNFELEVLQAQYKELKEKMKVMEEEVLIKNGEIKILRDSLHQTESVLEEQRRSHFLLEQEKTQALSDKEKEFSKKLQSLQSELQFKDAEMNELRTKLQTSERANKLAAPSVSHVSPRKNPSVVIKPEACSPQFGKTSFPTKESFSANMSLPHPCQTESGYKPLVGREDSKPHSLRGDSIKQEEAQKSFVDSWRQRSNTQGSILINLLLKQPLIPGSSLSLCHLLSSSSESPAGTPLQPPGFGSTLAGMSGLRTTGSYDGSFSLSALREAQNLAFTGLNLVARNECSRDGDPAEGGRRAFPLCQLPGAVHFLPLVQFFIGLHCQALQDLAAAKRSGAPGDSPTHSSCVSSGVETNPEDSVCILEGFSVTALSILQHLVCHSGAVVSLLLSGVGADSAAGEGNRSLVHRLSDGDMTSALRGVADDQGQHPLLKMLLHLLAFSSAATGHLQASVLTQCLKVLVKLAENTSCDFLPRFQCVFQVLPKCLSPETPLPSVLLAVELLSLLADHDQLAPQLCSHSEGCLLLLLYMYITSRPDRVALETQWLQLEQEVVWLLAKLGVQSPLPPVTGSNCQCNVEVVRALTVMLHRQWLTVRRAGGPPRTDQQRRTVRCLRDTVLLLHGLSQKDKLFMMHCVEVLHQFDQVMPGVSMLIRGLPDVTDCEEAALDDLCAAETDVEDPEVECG

Compound | pIC50 (mTOR) | pIC50 (ATR; [1]) | pIC50 (ATR)
CS(=O)(=O)C1(c2cc(N3CCOCC3)nc(-c3cccc4[nH]ccc34)n2)CC1 [Example 1.01, 4-{4-[1-(Methylsulfonyl)cyclopropyl]-6-morpholin-4-ylpyrimidin-2-yl}-1H-indole] | 6.75 | – | –
Cc1cc(-c2nc(N3CCOCC3)cc(C3(S(C)(=O)=O)CC3)n2)c2cc[nH]c2c1 [Example 1.02, 6-Methyl-4-{4-[1-(methylsulfonyl)cyclopropyl]-6-morpholin-4-ylpyrimidin-2-yl}-1H-indole] | 6.96 | 8.12 | –
Cc1cc2c(-c3nc(N4CCOCC4)cc(C4(S(C)(=O)=O)CC4)n3)cccc2[nH]1 [Example 1.03, 2-Methyl-4-{4-[1-(methylsulfonyl)cyclopropyl]-6-morpholin-4-ylpyrimidin-2-yl}-1H-indole] | 6.78 | – | 7.56
CS(=O)(=O)C1(c2cc(N3CCOCC3)nc(-c3cc(C#N)cc4[nH]ccc34)n2)CC1 [Example 1.05, 4-{4-[1-(methylsulfonyl)cyclopropyl]-6-morpholin-4-ylpyrimidin-2-yl}-1H-indole-6-carbonitrile] | 6.49 | 7.18 | –
CS(=O)(=O)C1(c2cc(N3CCOCC3)nc(-c3cc(Cl)cc4[nH]ccc34)n2)CC1 [Example 1.06, 6-chloro-4-{4-[1-(methylsulfonyl)cyclopropyl]-6-morpholin-4-ylpyrimidin-2-yl}-1H-indole] | 7.15 | 7.80 | –
CS(=O)(=O)C1(c2cc(N3CCOCC3)nc(-c3cccc4[nH]ccc34)n2)CCNCC1 [Example 1.08, 4-{4-[4-(Methylsulfonyl)piperidin-4-yl]-6-morpholin-4-ylpyrimidin-2-yl}-1H-indole] | 6.64 | 8.03 | –
CS(=O)(=O)C1(c2cc(N3CCOCC3)nc(-c3cccc4[nH]ccc34)n2)CCOCC1 [Example 1.09, 4-{4-[4-(Methylsulfonyl)tetrahydro-2H-pyran-4-yl]-6-morpholin-4-ylpyrimidin-2-yl}-1H-indole] | – | 8.43 | –
CCS(=O)(=O)C1(c2cc(N3CCOCC3)nc(-c3cccc4[nH]ccc34)n2)CC1 [Example 1.10, 4-{4-[1-(ethylsulfonyl)cyclopropyl]-6-morpholin-4-ylpyrimidin-2-yl}-1H-indole] | 7.02 | 7.82 | –
CC(C)S(=O)(=O)C1(c2cc(N3CCOCC3)nc(-c3cccc4[nH]ccc34)n2)CC1 [Example 1.11, 4-(4-{1-[(1-methylethyl)sulfonyl]cyclopropyl}-6-morpholin-4-ylpyrimidin-2-yl)-1H-indole] | 6.91 | 7.88 | –
O=S(=O)(C1CC1)C1(c2cc(N3CCOCC3)nc(-c3cccc4[nH]ccc34)n2)CC1 [Example 1.12, 4-{4-[1-(cyclopropylsulfonyl)cyclopropyl]-6-morpholin-4-ylpyrimidin-2-yl}-1H-indole] | < 4.05 | 7.49 | –
O=S(=O)(C1CC1)C1(c2cc(N3CCOCC3)nc(-c3cccc4[nH]ccc34)n2)CCOCC1 [Example 1.13, 4-{4-[4-(cyclopropylsulfonyl)tetrahydro-2H-pyran-4-yl]-6-morpholin-4-ylpyrimidin-2-yl}-1H-indole] | 5.91 | 7.23 | –
O=S(=O)(C1CC1)C1(c2cc(N3CCOCC3)nc(-c3cccc4[nH]ccc34)n2)CCNCC1 [Example 1.14, 4-{4-[4-(cyclopropylsulfonyl)piperidin-4-yl]-6-morpholin-4-ylpyrimidin-2-yl}-1H-indole] | 5.84 | 7.65 | –

Continued, in another order:

pIC50 (mTOR) | pIC50 (ATR; [1]) | Compound | pIC50 (ATR)
6.30 | 7.57 | C[C@H]1COCCN1c1cc(C2(S(=O)(=O)C3CC3)CCNCC2)nc(-c2cccc3[nH]ccc23)n1 [Example 2.01, 4-{4-[4-(Cyclopropylsulfonyl)piperidin-4-yl]-6-[(3S)-3-methylmorpholin-4-yl]pyrimidin-2-yl}-1H-indole] | –
6.33 | 6.43 | C[C@H]1COCCN1c1cc(C2(S(=O)(=O)C3CC3)CCOCC2)nc(-c2cccc3[nH]ccc23)n1 [Example 2.02, 4-{4-[4-(Cyclopropylsulfonyl)tetrahydro-2H-pyran-4-yl]-6-[(3S)-3-methylmorpholin-4-yl]pyrimidin-2-yl}-1H-indole] | –
7.00 | 8.21 | C[C@H]1COCCN1c1cc(C2(S(C)(=O)=O)CCCC2)nc(-c2cccc3[nH]ccc23)n1 [Example 2.03, 4-{4-[(3S)-3-Methylmorpholin-4-yl]-6-[1-(methylsulfonyl)cyclopentyl]pyrimidin-2-yl}-1H-indole] | –
6.52 | 8.34 | C[C@H]1COCCN1c1cc(C2(S(C)(=O)=O)CCOCC2)nc(-c2cccc3[nH]ccc23)n1 [Example 2.04, 4-{4-[(3S)-3-Methylmorpholin-4-yl]-6-[4-(methylsulfonyl)tetrahydro-2H-pyran-4-yl]pyrimidin-2-yl}-1H-indole] | –
7.01 | 8.18 | Cc1cc(-c2nc(N3CCOC[C@H]3C)cc(C3(S(C)(=O)=O)CC3)n2)c2cc[nH]c2c1 [Example 3.02, 6-Methyl-4-{4-[(3R)-3-methylmorpholin-4-yl]-6-[1-(methylsulfonyl)cyclopropyl]pyrimidin-2-yl}-1H-indole] | –
7.33 | 8.26 | Cc1cc2c(-c3nc(N4CCOC[C@H]4C)cc(C4(S(C)(=O)=O)CC4)n3)cccc2[nH]1 [Example 3.03, 2-Methyl-4-{4-[(3R)-3-methylmorpholin-4-yl]-6-[1-(methylsulfonyl)cyclopropyl]pyrimidin-2-yl}-1H-indole] | –
6.68 | 7.45 | C[C@@H]1COCCN1c1cc(C2(S(C)(=O)=O)CC2)nc(-c2cc(C#N)cc3[nH]ccc23)n1 [Example 3.04, 4-{4-[(3R)-3-Methylmorpholin-4-yl]-6-[1-(methylsulfonyl)cyclopropyl]pyrimidin-2-yl}-1H-indole-6-carbonitrile] | –
7.26 | 8.37 | C[C@@H]1COCCN1c1cc(C2(S(C)(=O)=O)CC2)nc(-c2cc(Cl)cc3[nH]ccc23)n1 [Example 3.05, 6-chloro-4-{4-[(3R)-3-methylmorpholin-4-yl}-6-[1-(methylsulfonyl)cyclopropyl]pyrimidin-2-yl}-1H-indole] | –
7.42 | 8.46 | C[C@@H]1COCCN1c1cc(C2(S(C)(=O)=O)CC2)nc(-c2cc(F)cc3[nH]ccc23)n1 [Example 3.06] | –
7.62 | 7.91 | COc1cc(-c2nc(N3CCOC[C@H]3C)cc(C3(S(C)(=O)=O)CC3)n2)c2cc[nH]c2c1 [Example 3.07, 6-methoxy-4-{4-[(3R)-3-methylmorphohn-4-yl]-6-[1-(methylsulfonyl)cyclopropyl]pyrimidin-2-yl}-1H-indole] | –
6.65 | 8.64 | C[C@@H]1COCCN1c1cc(C2(S(C)(=O)=O)CCOCC2)nc(-c2cccc3[nH]ccc23)n1 [Example 3.08, 4-{4-[(3R)-3-Methylmorpholin-4-yl]-6-[4-(methylsulfonyl)tetrahydro-2H-pyran-4-yl]pyrimidin-2-yl}-1H-indole] | –
6.35 | 8.80 | Cc1cc(-c2nc(N3CCOC[C@H]3C)cc(C3(S(C)(=O)=O)CCOCC3)n2)c2cc[nH]c2c1 [Example 3.09, 6-Methyl-4-{4-[(3R)-3-methylmorpholin-4-yl]-6-[4-(methylsulfonyl)tetrahydro-2H-pyran-4-yl]pyrimidin-2-yl}-1H-indole] | –
6.84 | 8.45 | Cc1cc2c(-c3nc(N4CCOC[C@H]4C)cc(C4(S(C)(=O)=O)CCOCC4)n3)cccc2[nH]1 [Example 3.10, 2-Methyl-4-{4-[(3R)-3-methylmorpholin-4-yl]-6-[4-(methylsulfonyl)tetrahydro-2H-pyran-4-yl]pyrimidin-2-yl}-1H-indole] | –
7.11 | 8.80 | COc1cc(-c2nc(N3CCOC[C@H]3C)cc(C3(S(C)(=O)=O)CCOCC3)n2)c2cc[nH]c2c1 [Example 3.11, 6-Methoxy-4-{4-[(3R)-3-methylmorpholin-4-yl]-6-[4-(methylsulfonyl)tetrahydro-2H-pyran-4-yl]pyrimidin-2-yl}-1H-indole] | –
6.38 | 8.60 | C[C@@H]1COCCN1c1cc(C2(S(C)(=O)=O)CCOCC2)nc(-c2cc(Cl)cc3[nH]ccc23)n1 [Example 3.12] | –
6.60 | 8.81 | C[C@@H]1COCCN1c1cc(C2(S(C)(=O)=O)CCOCC2)nc(-c2cc(F)cc3[nH]ccc23)n1 [Example 3.13, 6-fluoro-4-{4-[(3R)-3-methylmorpholin-4-yl]-6-[4-(methylsulfonyl)tetrahydro-2H-pyran-4-yl]pyrimidin-2-yl}-1H-indole] | –
6.16 | 7.85 | C[C@@H]1COCCN1c1cc(C2(S(C)(=O)=O)CCOCC2)nc(-c2cc(C#N)cc3[nH]ccc23)n1 [Example 3.14, 4-{4-[(3R)-3-methylmorphohn-4-yl]-6-[4-(methylsulfonyl)tetrahydro-2H-pyran-4-yl]pyrimidin-2-yl}-1H-indole-6-carbonitrile] | –
6.01 | 8.59 | C[C@@H]1COCCN1c1cc(C2(S(C)(=O)=O)CCNCC2)nc(-c2cccc3[nH]ccc23)n1 [Example 3.15, 4-{4-[(3R)-3-Methylmorpholin-4-yl]-6-[4-(methylsulfonyl)piperidin-4-yl]pyrimidin-2-yl}-1H-indole] | –
– | 7.70 | C[C@@H]1COC[C@H](C)N1c1cc(C2(S(C)(=O)=O)CC2)nc(-c2cccc3[nH]ccc23)n1 [Example 4.01, 4-{4-[(3S,5R)-3,5-Dimethylmorpholin-4-yl]-6-[1-(methylsulfonyl)cyclopropyl]pyrimidin-2-yl}-1H-indole] | –
7.68 | – | CS(=O)(=O)C1(c2cc(N3CC4CCC(C3)O4)nc(-c3cccc4[nH]ccc34)n2)CC1 [Example 5.01, 4-{4-[1-(Methylsulfonyl)cyclopropyl]-6-(8-oxa-3-azabicyclo[3.2.1]oct-3-yl)pyrimidin-2-yl}-1H-indole] | –

From patent publication US20110053923A1, “CHEMICAL COMPOUNDS 610” (AstraZeneca, priority 2008, published 2011)
